Data taken from publication PMC6409085, “Three odorant-binding proteins are involved in the behavioral response of Sogatella furcifera to rice plant volatiles” (PeerJ, 2019).
Several values for one entry are separate records, joined by “and”; a condition that tells them apart may be missing. Equal values may be shown once.

Tests used:
SfurOBP1 = SfurOBP1 (Sogatella furcifera, UniProt V5T8N5); experiment: Binding of 1-NPN to SfurOBP1 (fluorescence titration); conditions: for Fluorescence intensity: OBP1, triplicate columns
Chain of SfurOBP1 (V5T8N5 entry or part of it): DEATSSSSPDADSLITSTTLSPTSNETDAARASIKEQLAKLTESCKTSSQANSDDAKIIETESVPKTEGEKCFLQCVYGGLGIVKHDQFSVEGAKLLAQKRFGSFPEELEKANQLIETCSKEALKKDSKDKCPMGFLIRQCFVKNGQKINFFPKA
Protocol: (§1) Fluorescence competitive binding assays were performed on Tecan Spark 10M (Tecan Group Ltd., Männedorf, Switzerland) with the F96 Black ELIAS Plate (Sangon) ([Khuhro et al., 2017]; [Liu et al., 2017]). The solutions were excited at 337 nm and emission spectra were recorded between 390 and 490 nm. First, to test the binding constants of 1-NPN to the SfurOBPs, a 2.0 µM solution of protein in 50 mM Tris-HCl (pH = 7.4) was titrated with 1 mM 1-NPN to achieve virous concentrations. Next, the competitive binding of each odorant was measured using the 1-NPN as fluorescent reporter and odorant as competitor. The concentrations of protein and 1-NPN were both 2.0 µM, the odorant added after protein and 1-NPN added into the well of ELIAS Plate for 2 min. The final concentrations of each competitor were 2, 4, 6, 8, 10, 12, 14, 16, 18 and 20 µM. After 2 min of odorant added, the fluorescence intensity was measured and recorded. The volume of mixed solution in each well was maintained at 250 µL. Each interaction was performed in triplicates.
(§2) GraphPad Prism 7.0 software (GraphPad Software, Inc., La Jolla, CA, USA) was used to calculated and generated the binding constants (K1−NPN) of 1-NPN to SfurOBPs and relative Scatchard plots ([Ban et al., 2003]; [Li et al., 2016]). Dissociation constant (Ki) of each odorant to SfurOBP was computed from the corresponding IC50 value (the half maximal inhibitory concentration), using the following equation: Ki=[IC50]/(1 + [1-NPN]/K1−NPN), where [1-NPN] is the free concentration of 1-NPN and K1−NPN is the dissociation constant of the complex protein/1-NPN.

SfurOBP2 = SfurOBP2 (Sogatella furcifera, UniProt V5T759); experiment: Binding of 1-NPN to SfurOBP2 (fluorescence titration); conditions: for Fluorescence intensity: OBP2, triplicate columns
Chain of SfurOBP2 (V5T759 entry or part of it): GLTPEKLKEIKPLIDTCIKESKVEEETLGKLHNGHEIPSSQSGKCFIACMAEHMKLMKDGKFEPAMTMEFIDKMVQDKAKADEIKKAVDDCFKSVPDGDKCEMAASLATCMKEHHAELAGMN
Protocol: as §1, §2

SfurOBP3 = SfurOBP3 (Sogatella furcifera, UniProt V5T818); experiment: Binding of 1-NPN to SfurOBP3 (fluorescence titration); conditions: for Fluorescence intensity: OBP3, triplicate columns
Chain of SfurOBP3 (V5T818 entry or part of it): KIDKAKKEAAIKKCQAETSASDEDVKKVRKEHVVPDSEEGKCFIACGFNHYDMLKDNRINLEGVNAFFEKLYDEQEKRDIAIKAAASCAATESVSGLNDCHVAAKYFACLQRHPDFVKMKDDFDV
Protocol: as §1, §2

SfurOBP11 = SfurOBP11 (Sogatella furcifera, UniProt V5T6E3); experiment: Binding of 1-NPN to SfurOBP11 (fluorescence titration); conditions: for Fluorescence intensity: OBP11, triplicate columns
Chain of SfurOBP11 (V5T6E3 entry or part of it): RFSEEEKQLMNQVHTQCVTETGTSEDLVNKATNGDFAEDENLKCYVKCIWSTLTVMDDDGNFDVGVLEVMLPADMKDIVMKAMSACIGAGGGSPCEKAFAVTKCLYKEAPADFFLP
Protocol: as §1, §2

SMILES: c1ccc(Nc2cccc3ccccc23)cc1 [1-NPN, N-phenyl-1-naphthylamine]
- Fluorescence intensity (SfurOBP1; 1-NPN 2 (unit not given)): 7934 and 7244 and 7558
- Fluorescence intensity (SfurOBP1; 1-NPN 4 (unit not given)): 14870 and 13520 and 13256
- Fluorescence intensity (SfurOBP1; 1-NPN 6 (unit not given)): 19450 and 20173 and 19826
- Fluorescence intensity (SfurOBP1; 1-NPN 8 (unit not given)): 25948 and 27851 and 26112
- Fluorescence intensity (SfurOBP1; 1-NPN 10 (unit not given)): 30874 and 31162 and 28910
- Fluorescence intensity (SfurOBP1; 1-NPN 12 (unit not given)): 33259 and 35914 and 35970
- Fluorescence intensity (SfurOBP1; 1-NPN 14 (unit not given)): 37528 and 37617 and 40532
- Fluorescence intensity (SfurOBP1; 1-NPN 16 (unit not given)): 43674 and 43309 and 43505
- Fluorescence intensity (SfurOBP1; 1-NPN 18 (unit not given)): 50472 and 51665 and 48009
- Fluorescence intensity (SfurOBP1; 1-NPN 20 (unit not given)): 53471 and 53438 and 53794
- Fluorescence intensity (SfurOBP1; 1-NPN 22 (unit not given)): 54404 and 53461 and 54332
- Fluorescence intensity (SfurOBP1; 1-NPN 24 (unit not given)): 55616 and 55933 and 55336
- Fluorescence intensity (SfurOBP1; 1-NPN 26 (unit not given)): 55005 and 58722 and 54776
- Fluorescence intensity (SfurOBP1; 1-NPN 28 (unit not given)): 60087 and 56565 and 53471
- Fluorescence intensity (SfurOBP1; 1-NPN 30 (unit not given)): 59000 and 55051 and 51066
- Kd (SfurOBP1; SfurOBP1, 2.0 µM protein, 50 mM Tris-HCl pH 7.4, read-out: dissociation constant of 1-NPN): 24.2 µM
- Fluorescence intensity (SfurOBP2; 1-NPN 2 (unit not given)): 23662 and 22289 and 22010
- Fluorescence intensity (SfurOBP2; 1-NPN 4 (unit not given)): 39603 and 44704 and 31870
- Fluorescence intensity (SfurOBP2; 1-NPN 6 (unit not given)): 50431 and 46158 and 47197
- Fluorescence intensity (SfurOBP2; 1-NPN 8 (unit not given)): 61337 and 63137 and 57001
- Fluorescence intensity (SfurOBP2; 1-NPN 10 (unit not given)): 59819 and 73730 and 69974
- Fluorescence intensity (SfurOBP2; 1-NPN 14 (unit not given)): 64863 and 65896 and 57584
- Fluorescence intensity (SfurOBP2; 1-NPN 16 (unit not given)): 70787 and 76872 and 65200
- Fluorescence intensity (SfurOBP2; 1-NPN 18 (unit not given)): 75833 and 70878 and 75400
- Fluorescence intensity (SfurOBP2; 1-NPN 20 (unit not given)): 67482 and 73624 and 78268
- Fluorescence intensity (SfurOBP2; 1-NPN 22 (unit not given)): 76334 and 74639 and 64277
- Kd (SfurOBP2; SfurOBP2, 2.0 µM protein, 50 mM Tris-HCl pH 7.4, read-out: dissociation constant of 1-NPN): 5.67 µM
- Fluorescence intensity (SfurOBP3; 1-NPN 2 (unit not given)): 61430 and 58985 and 59650
- Fluorescence intensity (SfurOBP3; 1-NPN 4 (unit not given)): 77503 and 80113 and 80262
- Fluorescence intensity (SfurOBP3; 1-NPN 6 (unit not given)): 85325 and 83919 and 82776
- Fluorescence intensity (SfurOBP3; 1-NPN 8 (unit not given)): 97386 and 97137 and 85039
- Fluorescence intensity (SfurOBP3; 1-NPN 10 (unit not given)): 98049 and 103605 and 94167
- Fluorescence intensity (SfurOBP3; 1-NPN 12 (unit not given)): 100936 and 110967 and 98958
- Fluorescence intensity (SfurOBP3; 1-NPN 14 (unit not given)): 99019 and 113580 and 103187
- Fluorescence intensity (SfurOBP3; 1-NPN 16 (unit not given)): 114929 and 113428 and 104178
- Fluorescence intensity (SfurOBP3; 1-NPN 18 (unit not given)): 121020 and 111471 and 116920
- Fluorescence intensity (SfurOBP3; 1-NPN 20 (unit not given)): 114200 and 113028 and 114937
- Fluorescence intensity (SfurOBP3; 1-NPN 22 (unit not given)): 115221 and 112203 and 110696
- Fluorescence intensity (SfurOBP3; 1-NPN 24 (unit not given)): 120756 and 110811 and 112155
- Fluorescence intensity (SfurOBP3; 1-NPN 26 (unit not given)): 117527 and 109823 and 115694
- Fluorescence intensity (SfurOBP3; 1-NPN 28 (unit not given)): 107913 and 111968 and 118918
- Fluorescence intensity (SfurOBP3; 1-NPN 30 (unit not given)): 110746 and 113690 and 116658
- Kd (SfurOBP3; SfurOBP3, 2.0 µM protein, 50 mM Tris-HCl pH 7.4, read-out: dissociation constant of 1-NPN): 2.42 µM
- Fluorescence intensity (SfurOBP11; 1-NPN 2 (unit not given)): 34926 and 31369 and 32128
- Fluorescence intensity (SfurOBP11; 1-NPN 4 (unit not given)): 46136 and 60649 and 53421
- Fluorescence intensity (SfurOBP11; 1-NPN 6 (unit not given)): 59058 and 63562 and 67479
- Fluorescence intensity (SfurOBP11; 1-NPN 8 (unit not given)): 73431 and 79398 and 77472
- Fluorescence intensity (SfurOBP11; 1-NPN 10 (unit not given)): 83685 and 83190 and 84209
- Fluorescence intensity (SfurOBP11; 1-NPN 12 (unit not given)): 87527 and 87829 and 87441
- Fluorescence intensity (SfurOBP11; 1-NPN 14 (unit not given)): 113208 and 119321 and 82397
- Fluorescence intensity (SfurOBP11; 1-NPN 16 (unit not given)): 121541 and 129453 and 101542
- Fluorescence intensity (SfurOBP11; 1-NPN 18 (unit not given)): 129684 and 132053 and 101150
- Fluorescence intensity (SfurOBP11; 1-NPN 20 (unit not given)): 142842 and 126669 and 108121
- Fluorescence intensity (SfurOBP11; 1-NPN 22 (unit not given)): 118001 and 129399 and 126785
- Fluorescence intensity (SfurOBP11; 1-NPN 24 (unit not given)): 123359 and 122043 and 121686
- Kd (SfurOBP11; SfurOBP11, 2.0 µM protein, 50 mM Tris-HCl pH 7.4, read-out: dissociation constant of 1-NPN): 10.4 µM
